{"source": "patent US7910612B2", "about": "“4-oxy-N-[1,3,4]-thiadiazol-2-yl-benzene sulfonamides, pharmaceutical compositions and methods for their therapeutic use” (Sanofi-Aventis, priority 2005, dated 2011)", "key": {"[1]": {"system": "healthy volunteers", "conditions": "two weeks clinical trials in healthy volunteers; cited from earlier work"}, "[2]": {"system": "rhesus monkeys", "conditions": "cited from earlier work"}, "[3]": {"system": "cynomolgus monkeys", "conditions": "cited from earlier work"}, "[4]": {"system": "obese, insulin resistant rhesus monkeys", "conditions": "cited from earlier work"}, "[5]": {"biological_target": "T1, human PPARdelta (Homo sapiens, UniProt Q03181)", "T1 construct": "amino acids S139-Y441; expressed in transfected cells; host or cells: HEK (human embryo kidney) cells, stably transfected, pcDNA3 vector", "T1 sequence (Q03181 139-441)": "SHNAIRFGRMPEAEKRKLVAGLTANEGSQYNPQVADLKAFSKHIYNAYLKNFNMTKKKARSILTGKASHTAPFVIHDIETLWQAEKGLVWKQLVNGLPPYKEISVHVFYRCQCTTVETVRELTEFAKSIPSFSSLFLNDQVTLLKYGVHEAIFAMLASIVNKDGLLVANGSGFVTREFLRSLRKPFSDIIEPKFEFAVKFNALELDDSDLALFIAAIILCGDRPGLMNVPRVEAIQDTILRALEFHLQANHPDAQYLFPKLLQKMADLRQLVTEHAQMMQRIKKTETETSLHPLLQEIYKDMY", "experiment": "cellular PPARdelta assay (stably transfected HEK luciferase reporter cell line)", "assay_type": "cell-based", "method": "The potency of substances which bind to human PPARdelta and activate it in an agonistic manner is analyzed using a stably transfected HEK cell line (HEK=human embryo kidney) which is referred to here as PPARdelta reporter cell line. In analogy to the assay described for PPARalpha, the PPARdelta reporter cell line also contains two genetic elements, a luciferase reporter element (pdeltaM-GAL4-Luc-Zeo) and a PPARdelta fusion protein (GR-GAL4-humanPPARdelta-LBD) which mediates expression of the luciferase reporter element depending on a PPARdelta ligand. The stably and constitutively expressed fusion protein GR-GAL4-humanPPARdelta-LBD binds in the cell nucleus of the PPARdelta reporter cell line via the GAL4 protein portion to the GAL4 DNA binding motifs 5′-upstream of the luciferase reporter element which is stably integrated in the genome of the cell line. There is only little expression of the luciferase reporter gene in the absence of a PPARdelta ligand if fatty acid-depleted fetal calf serum (cs-FCS) is used in the assay. PPARdelta ligands bind and activate the PPARdelta fusion protein and thereby stimulate expression of the luciferase reporter gene. The luciferase which is formed can be detected by means of chemiluminescence via an appropriate substrate.\nThe production of the stable PPARdelta reporter cell line is based on a stable HEK-cell clone which was stably transfected with a luciferase reporter element. This step was already described above in the section “construction of the PPARalpha reporter cell line”. In a second step, the PPARdelta fusion protein (GR-GAL4-humanPPARdelta-LBD was stably introduced into this cell clone. For this purpose, the cDNA coding for the N-terminal 76 amino acids of the glucocorticoid receptor (Accession #P04150) was linked to the cDNA section coding for amino acids 1-147 of the yeast transcription factor GAL4 (Accession #P04386). The cDNA of the ligand-binding domain of the human PPARdelta receptor (amino acids S139-Y441; Accession #L07592) was cloned in at the 3′-end of this GR-GAL4 construct. The fusion construct prepared in this way (GR-GAL4-humanPPARdelta-LBD) was recloned into the plasmid pcDNA3 (Invitrogen) in order to enable constitutive expression by the cytomegalovirus promoter. This plasmid was linearized with a restriction endonuclease and stably transfected into the previously described cell clone containing the luciferase reporter element. The resulting PPARdelta reporter cell line which contains a luciferase reporter element and constitutively expresses the PPARdelta fusion protein (GR-GAL4-human PPARdelta-LBD) was isolated by selection with zeocin (0.5 mg/ml) and G418 (0.5 mg/ml).\nThe activity of PPARdelta agonists is determined in a 3-day assay in exact analogy to the procedure already described for the PPARalpha reporter cell line except that the PPARdelta reporter cell line and a specific PPARdelta agonist was used as a standard to control test efficacy. […] Compounds of the invention of the formula I activate the PPARdelta receptor."}, "[6]": {"system": "diabetic animal model", "conditions": "cited from earlier work"}}, "data": [{"smiles": "CCCc1c(OCCCSc2nnc(SCC(=O)O)s2)ccc(C(C)=O)c1O", "note": "[YM-16638]", "values": [{"measurement": "plasma lipids", "setting": "[1]", "value": "acts in a similar manner"}, {"measurement": "plasma lipids", "setting": "[2]", "value": "significantly lowers plasma lipids"}, {"measurement": "plasma lipids", "setting": "[3]", "value": "significantly lowers plasma lipids"}]}, {"smiles": "Cc1cc(SCc2sc(-c3ccc(C(F)(F)F)cc3)nc2C)ccc1OCC(=O)O", "note": "[GW501516]", "values": [{"measurement": "HDL-cholesterol", "setting": "[4]", "value": "raises HDL-cholesterol"}, {"measurement": "plasma LDL-cholesterol", "setting": "[4]", "value": "decreases plasma LDL-cholesterol"}, {"measurement": "insulin levels", "setting": "[4]; plasma", "value": "decreases"}, {"measurement": "triglycerides", "setting": "[4]; plasma", "value": "decreases"}]}, {"smiles": "COc1ccc2oc(COc3ccc(S(=O)(=O)Nc4nnc(C(C)C)s4)cc3)cc2c1", "note": "[Example 12, N-(5-Isopropyl-[1,3,4]thiadiazol-2-yl)-4-(5-methoxy-benzofuran-2-ylmethoxy)-benzenesulfonamide]", "values": [{"measurement": "EC50", "setting": "[5]", "value": 480, "unit": "nM"}]}, {"smiles": "CCCc1c(OCCCOc2ccc(OCC(=O)O)cc2)ccc(C(C)=O)c1O", "note": "[Example L-165041]", "values": [{"measurement": "plasma cholesterol", "setting": "[6]", "value": "raises plasma cholesterol"}]}]}
